Reference: patent US11447466B2, “Substituted indole compounds useful as inhibitors of TLR7/8/9” (BRISTOL-MYERS SQUIBB COMPANY, priority 2017, dated 2022)

Assays:
Type in all cases: cell-based
human TLR9 = target: T1, human TLR9 (Homo sapiens, UniProt Q9NR96); test: TLR9 inhibition reporter assay (HEK-Blue SEAP reporter, ODN2006 stimulation); conditions: HEK-Blue cells overexpressing human TLR9, SEAP reporter, ODN2006 5 nM, 22 hour incubation
T1 construct: host or cells: HEK-Blue cells
T1 sequence (Q9NR96 26-1032): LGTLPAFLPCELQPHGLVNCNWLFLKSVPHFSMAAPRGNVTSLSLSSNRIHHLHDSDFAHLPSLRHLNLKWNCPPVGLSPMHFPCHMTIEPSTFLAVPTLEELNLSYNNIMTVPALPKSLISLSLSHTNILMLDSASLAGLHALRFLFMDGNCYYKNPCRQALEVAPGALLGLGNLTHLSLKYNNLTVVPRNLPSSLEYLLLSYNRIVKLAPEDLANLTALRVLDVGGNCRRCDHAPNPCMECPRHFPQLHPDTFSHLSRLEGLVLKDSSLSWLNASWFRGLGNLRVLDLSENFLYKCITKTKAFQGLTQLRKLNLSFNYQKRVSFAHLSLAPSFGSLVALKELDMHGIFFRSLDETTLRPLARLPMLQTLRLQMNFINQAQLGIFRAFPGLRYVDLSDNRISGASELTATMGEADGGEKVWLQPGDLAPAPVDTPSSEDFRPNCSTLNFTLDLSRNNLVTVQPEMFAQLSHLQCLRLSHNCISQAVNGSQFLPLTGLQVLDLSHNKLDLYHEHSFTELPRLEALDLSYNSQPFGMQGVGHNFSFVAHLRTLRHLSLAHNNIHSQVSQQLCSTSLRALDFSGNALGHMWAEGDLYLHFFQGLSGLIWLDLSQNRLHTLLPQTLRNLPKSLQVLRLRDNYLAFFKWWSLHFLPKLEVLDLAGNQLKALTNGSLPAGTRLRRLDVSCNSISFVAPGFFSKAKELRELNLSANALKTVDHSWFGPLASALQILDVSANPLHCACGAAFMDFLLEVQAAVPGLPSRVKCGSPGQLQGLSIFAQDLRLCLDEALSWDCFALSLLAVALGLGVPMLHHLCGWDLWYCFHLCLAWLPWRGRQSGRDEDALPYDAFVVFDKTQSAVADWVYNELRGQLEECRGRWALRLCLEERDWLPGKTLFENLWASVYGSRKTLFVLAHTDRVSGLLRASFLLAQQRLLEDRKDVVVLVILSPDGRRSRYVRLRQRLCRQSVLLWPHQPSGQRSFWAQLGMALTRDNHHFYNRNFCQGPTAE
Procedure, shortened: (§1)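 Screening used HEK-Blue cells overexpressing one human TLR (7, 8 or 9) and an IFN-β minimal promoter–NF-κB/AP-1 SEAP construct. Stimulation lasted 22 h at 37 °C with receptor-specific agonist: gardiquimod, R848 or ODN2006 at 7.5 μM, 15.9 μM and 5 nM.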

human TLR7 = target: T2, human TLR7 (Homo sapiens, UniProt Q9NYK1); test: TLR7 inhibition reporter assay (HEK-Blue SEAP reporter, gardiquimod stimulation); conditions: HEK-Blue cells overexpressing human TLR7, SEAP reporter, gardiquimod 7.5 μM, 22 hour incubation
T2 construct: host or cells: HEK-Blue cells
T2 sequence (Q9NYK1 27-1049): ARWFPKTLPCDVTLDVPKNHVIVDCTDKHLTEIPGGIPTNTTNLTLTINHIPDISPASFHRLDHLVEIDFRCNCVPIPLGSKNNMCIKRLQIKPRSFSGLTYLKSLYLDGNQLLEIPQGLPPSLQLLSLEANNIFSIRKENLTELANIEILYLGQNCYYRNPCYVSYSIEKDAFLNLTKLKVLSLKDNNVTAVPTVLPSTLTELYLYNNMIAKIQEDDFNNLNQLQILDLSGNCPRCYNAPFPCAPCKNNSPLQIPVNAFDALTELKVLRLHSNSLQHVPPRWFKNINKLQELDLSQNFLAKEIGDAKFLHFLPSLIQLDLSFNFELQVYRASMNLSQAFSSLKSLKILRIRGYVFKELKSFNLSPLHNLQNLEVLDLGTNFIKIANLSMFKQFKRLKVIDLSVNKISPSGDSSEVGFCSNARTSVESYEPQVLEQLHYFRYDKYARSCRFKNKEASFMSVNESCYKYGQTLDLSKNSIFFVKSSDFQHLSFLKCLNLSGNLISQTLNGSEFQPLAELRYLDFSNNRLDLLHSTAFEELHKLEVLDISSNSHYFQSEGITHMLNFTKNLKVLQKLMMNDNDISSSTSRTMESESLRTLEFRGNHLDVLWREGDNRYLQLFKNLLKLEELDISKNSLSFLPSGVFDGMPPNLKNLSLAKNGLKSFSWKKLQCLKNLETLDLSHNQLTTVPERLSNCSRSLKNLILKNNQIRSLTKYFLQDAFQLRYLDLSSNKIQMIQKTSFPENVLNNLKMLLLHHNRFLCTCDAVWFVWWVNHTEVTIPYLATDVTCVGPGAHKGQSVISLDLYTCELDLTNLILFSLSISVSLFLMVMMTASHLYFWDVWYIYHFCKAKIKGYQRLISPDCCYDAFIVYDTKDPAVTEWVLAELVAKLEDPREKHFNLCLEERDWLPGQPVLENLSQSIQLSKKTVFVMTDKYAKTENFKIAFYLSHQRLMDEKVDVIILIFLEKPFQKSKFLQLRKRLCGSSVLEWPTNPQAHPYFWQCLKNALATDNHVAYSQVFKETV
Procedure, shortened: as §1

human TLR8 = target: T3, human TLR8 (Homo sapiens, UniProt Q9NR97); test: TLR8 inhibition reporter assay (HEK-Blue SEAP reporter, R848 stimulation); conditions: HEK-Blue cells overexpressing human TLR8, SEAP reporter, R848 15.9 μM, 22 hour incubation
T3 construct: host or cells: HEK-Blue cells
T3 sequence (Q9NR97 27-1041): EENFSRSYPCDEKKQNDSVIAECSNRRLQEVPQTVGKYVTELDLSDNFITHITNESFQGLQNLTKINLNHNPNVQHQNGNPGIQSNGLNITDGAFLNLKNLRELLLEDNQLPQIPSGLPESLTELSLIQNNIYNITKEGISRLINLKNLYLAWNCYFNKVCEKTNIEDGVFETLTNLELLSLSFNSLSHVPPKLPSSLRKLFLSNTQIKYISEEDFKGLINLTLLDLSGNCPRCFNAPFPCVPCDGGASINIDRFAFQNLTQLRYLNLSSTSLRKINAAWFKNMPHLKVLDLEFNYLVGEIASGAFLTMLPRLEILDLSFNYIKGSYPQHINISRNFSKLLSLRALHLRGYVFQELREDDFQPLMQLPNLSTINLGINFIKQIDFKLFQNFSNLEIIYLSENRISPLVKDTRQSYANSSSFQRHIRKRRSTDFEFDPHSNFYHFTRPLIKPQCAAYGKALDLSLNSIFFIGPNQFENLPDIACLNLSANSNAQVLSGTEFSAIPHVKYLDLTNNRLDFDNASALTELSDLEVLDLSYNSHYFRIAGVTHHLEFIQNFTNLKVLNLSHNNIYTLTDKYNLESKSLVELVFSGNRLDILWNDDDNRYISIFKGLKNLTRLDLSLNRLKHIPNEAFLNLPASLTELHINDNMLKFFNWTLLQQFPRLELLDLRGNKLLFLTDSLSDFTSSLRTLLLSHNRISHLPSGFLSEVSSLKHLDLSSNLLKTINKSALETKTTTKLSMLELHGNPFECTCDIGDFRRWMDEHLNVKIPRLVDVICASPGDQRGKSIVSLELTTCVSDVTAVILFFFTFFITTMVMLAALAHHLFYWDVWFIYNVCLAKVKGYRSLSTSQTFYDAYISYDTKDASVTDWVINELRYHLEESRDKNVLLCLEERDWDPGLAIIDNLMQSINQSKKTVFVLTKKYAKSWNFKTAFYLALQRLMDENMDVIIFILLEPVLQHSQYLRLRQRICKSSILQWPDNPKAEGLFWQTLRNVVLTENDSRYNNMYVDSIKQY
Procedure, shortened: as §1

SMILES | IC50 (human TLR9) [nM] | IC50 (human TLR7) [nM] | IC50 (human TLR8) [nM]
CC(C)c1c(-c2ccc(=O)n(C)c2)[nH]c2ccc(C3CCN(C4COC4)CC3)cc12 [Example 175, 5-(3-isopropyl-5-(1-(oxetan-3-yl)piperidin-4-yl)-1H-indol-2-yl)-1-methylpyridin-2(1H)-one] | 15500 | 275 | 87.5
CCCNC(=O)c1cc(-c2[nH]c3ccc(C4CCNCC4)cc3c2C(C)C)cn(C)c1=O [Example 64, 5-(3-isopropyl-5-(piperidin-4-yl)-1H-indol-2-yl)-1-methyl-2-oxo-N-propyl-1,2-dihydropyridine-3-carboxamide] | 7380 | 480 | 1080
CCn1cc(-c2[nH]c3ccc(C4CCN(CC(=O)NC)CC4)cc3c2C(C)C)c(C)c(C)c1=O [Example 137, 2-(4-(2-(1-ethyl-4,5-dimethyl-6-oxo-1,6-dihydropyridin-3-yl)-3-isopropyl-1H-indol-5-yl)piperidin-1-yl)-N-methylacetamide] | 11500 | 19.9 | 12.3
Cc1c(-c2[nH]c3ccc(C4CCN(CC(C)(C)O)CC4)cc3c2C(C)C)cn(C)c(=O)c1C [Example 315, 5-(5-(1-(2-hydroxy-2-methylpropyl)piperidin-4-yl)-3-isopropyl-1H-indol-2-yl)-1,3,4-trimethylpyridin-2(1H)-one] | 4940 | 6.7 | 1.8
Cc1c(-c2[nH]c3ccc(C4CCN(C5CCOCC5)CC4)cc3c2C(C)C)cn(C)c(=O)c1Cl [Example 239, 3-chloro-5-(3-isopropyl-5-(1-(tetrahydro-2H-pyran-4-yl)piperidin-4-yl)-1H-indol-2-yl)-1,4-dimethylpyridin-2(1H)-one] | 5810 | 5.4 | 5.3
Cc1nn(C)cc1CN1CCC(c2ccc3[nH]c(-c4cc(C)c(=O)n(C)c4)c(C(C)C)c3c2)CC1 [Example 232, 5-(5-(1-((1,3-dimethyl-1H-pyrazol-4-yl)methyl)piperidin-4-yl)-3-isopropyl-1H-indol-2-yl)-1,3-dimethylpyridin-2(1H)-one] | 6010 | 2.9 | 1.1
Cc1c(-c2[nH]c3ccc(C4CCN(C5CCOCC5)CC4)cc3c2C(C)C)nn(C)c(=O)c1C [Example 205, 6-(3-isopropyl-5-(1-(tetrahydro-2H-pyran-4-yl)piperidin-4-yl)-1H-indol-2-yl)-2,4,5-trimethylpyridazin-3(2H)-one] | 8710 | 501 | 19.8

These reach a lower IC50 (human TLR9). Values come first.

IC50 (human TLR9) [nM] | IC50 (human TLR7) [nM] | IC50 (human TLR8) [nM] | SMILES
4570 | 6.1 | 9 | Cc1c(-c2[nH]c3ccc(C4CCN(C(=O)CN(C)C)CC4)cc3c2C(C)C)cn(C)c(=O)c1C [Example 280, 5-(5-(1-(dimethylglycyl)piperidin-4-yl)-3-isopropyl-1H-indol-2-yl)-1,3,4-trimethylpyridin-2(1H)-one]
3150 | 17.7 | 3.9 | Cc1cc(-c2[nH]c3ccc(C4CCN(CC(C)(C)O)CC4)cc3c2C(C)C)nn(C)c1=O [Example 311, 6-(5-(1-(2-hydroxy-2-methylpropyl)piperidin-4-yl)-3-isopropyl-1H-indol-2-yl)-2,4-dimethylpyridazin-3(2H)-one]
2930 | 5 | 8 | CNC(=O)CN1CCC(c2ccc3[nH]c(-c4cc(OC)c(=O)n(C)c4)c(C(C)C)c3c2)CC1 [Example 129, 2-(4-(3-isopropyl-2-(5-methoxy-1-methyl-6-oxo-1,6-dihydropyridin-3-yl)-1H-indol-5-yl)piperidin-1-yl)-N-methylacetamide]
2720 | 413 | 99.7 | COc1cc(-c2[nH]c3ccc(C4CCN(CC(=O)N(C)C)CC4)cc3c2C(C)C)c(C)n(C)c1=O [Example 143, 2-(4-(3-isopropyl-2-(5-methoxy-1,2-dimethyl-6-oxo-1,6-dihydropyridin-3-yl)-1H-indol-5-yl)piperidin-1-yl)-N,N-dimethylacetamide]
1020 | 28.9 | 2140 | CCCN1CCC(c2ccc3[nH]c(-c4cc(-c5cnc(C(F)(F)F)nc5)c(=O)n(C)c4)c(C(C)C)c3c2)CC1 [Example 339, 5-(3-isopropyl-5-(1-propylpiperidin-4-yl)-1H-indol-2-yl)-1-methyl-3-(2-(trifluoromethyl)pyrimidin-5-yl) pyridin-2(1H)-one]
919 | 4.3 | 5.9 | CCc1cc(-c2[nH]c3ccc(C4CCNCC4)cc3c2C(C)C)cn(C)c1=O [Example 67, 3-ethyl-5-(3-isopropyl-5-(piperidin-4-yl)-1H-indol-2-yl)-1-methylpyridin-2(1H)-one]
387 | 2.9 | 1.7 | CC(C)c1c(-c2cc(-c3cncnc3)c(=O)n(C)c2)[nH]c2ccc(C3CCN(C)CC3)cc12 [Example 246, 5-(3-isopropyl-5-(1-methylpiperidin-4-yl)-1H-indol-2-yl)-1-methyl-3-(pyrimidin-5-yl)pyridin-2(1H)-one]
